Legend:
[1] = tested on: primary astrocytes; assay: High throughput screening (HTS) for lactate secretion: acidification of extracellular medium (SNARF5); type: cell-based, mouse; design: key to Score / HTS Score (SNARF5) / Score_SNARF: fraction of plate positive-control activity (1 = 100%); settings: for Score_SNARF: Appendix I, primary screening confirmation (SNARF5)
Description: Primary cultures of cerebrocortical astrocytes were obtained from 1-2-day-old OF1 mouse pups (Charles River Laboratories). Briefly, cortices were isolated and minced in small pieces under a dissecting microscope. The cells were incubated for 30 min at 37° C. in a solution containing 20 U/ml of papain enzyme (Worthington Biochemical), L-cysteine 1 mM (Sigma), and 10 kU/ml DNase I (Worthington Biochemical) for an enzymatic dissociation. Papain activity was stopped by the addition of fetal calf serum (FCS) to the solution, and a single-cell suspension was then obtained by mechanical dissociation, which consisted in cells trituration in a DMEM (D7777, Sigma-Aldrich) medium (supplemented with 44 mm NaHCO3, and 10 ml/L antibiotic/antimycotic solution) containing 10% FCS. The cells were seeded at an average density of 6×10^4 cells/cm^2 in poly-D-lysine-coated 96, 12 or 6-well culture plates, depending on their use, and incubated at 37° C. in a humidified atmosphere containing 5% CO2/95% air. Culture medium was renewed twice per week. Cells were stimulated and harvested between DIV14 and DIV17, when confluence and cell growth were optimal.
Secretion of lactate in a high-throughput screening (HTS) fashion was measured indirectly through the acidification of extracellular medium. To this end, primary astrocytes grown in 96-well plates for 17 days were stimulated with the compounds as listed herein.
After washing the cells twice with stimulation medium (DMEM (D5030, Sigma), 3 mM NaHCO3 and 5 mM Glucose) at 37° C., cells were stimulated with the compounds at a final concentration of 10 uM (1% DMSO final) in 50 ul per well of stimulation medium supplemented with 10 uM of the extracellular pH sensor SNARF-5F %-(AND-6)-CAR (Life Technologies Corporation). Each compound was tested in two different plates for duplicates.
After 90 min stimulation, fluorescence was read at exc. (excitation) 480 nm/emm. (emission) 580 nm and at exc 480 nm/emm. 630 nm. The ratio of fluorescence between 630 nm and 580 emission values, which represents extracellular pH, was calculated.
In each plate, 8 wells were used for negative controls (DMSO) and 8 wells were used for positive controls (CCCP 2 uM in DMSO). Z prime values were calculated for each of the plates tested and values<0 were discarded.
The average and SD of compounds' values tested in duplicates were calculated, and compound was noted as HIT when the difference between compound's average and negative control's average was greater than three times the sum of compound's SD and negative controls' SD. Only scores greater than 40% were considered as lead Hits for the CDC54K library; for the remaining libraries, all hits were considered. Scores are calculated as the % of activity compared to the positive control in each plate (which is 100%).
Primary screening hits were cherry picked on new plates and confirmed for SNARF5 effect, after having discarded those compounds that are fluorescent (exc. 480 nm/emm. 580 nm or 630 nm) before stimulation. Extracellular medium was next analyzed for extracellular lactate quantification for secondary screening.
Identification of lactate-enhancing drugs with high throughput screening (HTS) experiments on astrocytes primary cultures using extracellular pH dye (SNARF5F 5-(and-6)-carboxylic acid) for 90 min. The procedure is described in Material and Methods (2. Cell culture, 2.1. HTS for lactate secretion and 2.2. Extracellular lactate quantification).
The procedure was performed as follows: • Primary screening: acidification of the extracellular medium • Primary screening confirmation: acidification of the extracellular medium, removal of compounds with fluorescent activity at exc. 480 nm/emm. 580 nm or 630 n. • Secondary screening: dosage of extracellular lactate

[2] = tested on: primary astrocytes; assay: Extracellular lactate quantification; type: cell-based, mouse; settings: for Score_LACTATE: Appendix I, secondary screening: extracellular lactate
In short: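 Astrocytes were stimulated 90 min at 37 °C in D5030 medium with 5 mM glucose and 44 mM bicarbonate, with compound at 0-100 μM. Extracellular lactate was measured enzymatically with LDH/NAD in glycine-semicarbazide buffer, pH 10, for 1 h at 37 °C. NADH fluorescence (340/450 nm) was converted to lactate using an L-lactate standard curve.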

[3] = tested on: primary astrocytes; assay: Intracellular glycogen quantification; type: cell-based, mouse; settings: CDC54K hits, 10 μM, 3 h
Description: For glycogen dosage, a protein dosage was first performed in order to assess whether harvested astrocytes from primary cell cultures yielded enough and equivalent amounts of proteins comparing each replicate, and to ensure that the obtained differences in glycogen quantities were due to drug action and not to inner protein quantities.
Astrocytes used for these dosages were previously grown in 6-well plates for 17 days and stimulated with Vehicle (DMSO) or drug of interest (1 μM to 100 μM) for 180 min, at 37° C. 5% CO2/95% air in D5030 complete medium. Medium was removed and replaced with 600 μl of 30 mM Tris HCl, and stored at −20° C.
Proteins were dosed using the micro BCA Protein Assay kit (Thermo Scientific), as described in the manufacturer's instructions. Briefly, thawed cells were sonicated and 5 μl aliquots were placed in a transparent 96-well plate, to which we added 25 μl 30 mM Tris HCl, 70 μl H2O and 100 μl of a BCA mix (made as described in manufacturer's guidelines). After a 120 min-incubation at 37° C., absorbance was measured with Safire 2 spectrophotometer at a wavelength of 562 nm, and protein quantities were determined from a standard curve of Bovine Serum Albumin (BSA).
Glycogen was quantified using a 250 μl-aliquot of the same stimulated, thawed, and sonicated cells. After an incubation period of 30 min at 90° C. and 400 rpm, 28 μl of an acetic acid/sodium acetate (both from Sigma) 0.1M pH 4.6 buffer was added to each aliquot, which was then separated in two. Each split aliquot received whether 5 μl of amyloglucosidase (Roche) or 5 μl H2O, and all cell solutions were incubated for 120 min in a shaking 37° C.-waterbath. After a centrifugation at 16'000G for 5 min, 20 μl of supernatant were placed 96-well plate, to which 150 μl of a mix containing 0.67 mM ATP (Roche), 0.67 mM NADP (Roche), 1.8% hexokinase/glucose-6-phosphate dehydrogenase (Roche) and 0.1M Tris Buffer-HCl/3.3 mM magnesium (Fluka)/pH 8.1 buffer was added. Fluorescence was measured with Safire 2 spectrophotometer (340 nm excitation/440 nm emission). Glycogen concentration was obtained by substracting glucose value of samples with amyloglucosidase to samples without amyloglucosidase, and were expressed relative to the amount of proteins previously determined.
Levels of intracellular glycogen in astrocytes were measured at 3 h after stimulation with 20 Hits from the Prestwick library (10 μM each), as shown in FIG. 2. n=6-10; Ctrl pos. is glutamate (0.5 mM). Statistical analysis consisted in ANOVA followed by Fisher LSD post-hoc test for pair-wise comparisons.
Statistical analysis consisted in ANOVA followed by Fisher LSD post-hoc test for pair-wise comparisons.

[4] = tested on: primary astrocytes; assay: MTT viability assay; type: cell-based; settings: Mus musculus, Astrocyte, 0-200 uM, 24 h
Description: For cell toxicity determination, astrocytes in 96-well plates were stimulated 24 h (37° C. 5% CO2/95% air) with a gradient ranging from 0.1 to 200 μM of tested compounds. After stimulation, 5 mg/ml thiazol blue tetrazolium bromide (MTT, Sigma-Aldrich) in warm D5030 complete medium was added to each well, and cells were incubated for 4 h at 37° C. (5% CO2). The medium was then removed by aspiration, and the reaction was stopped by the addition of 50 μl DMSO per well.
The amount of reduced MTT (formazan) solubilized in DMSO was then determined spectrophotometrically using absorbance at 570 nm (Safire 2; Tecan).
MTT cellular viability assay was performed on astrocytes exposed to Preswtick Hits (concentrations ranging from 0 uM to 200 uM).
MTT cellular viability assay was performed on astrocytes exposed to CDC54K Hits (concentrations ranging from 0 uM to 200 uM).

[5] = ALS patients; cited from earlier work
[6] = tested on: primary astrocytes; assay: Intracellular glycogen quantification, Example 2; type: cell-based, mouse; settings: 10 μM, 3 h
Description: Astrocytes grown on 12-well plates were used for intracellular glycogen quantifications. Cells were stimulated with Vehicle (DMSO), with compounds of the invention (10 μM), or with a positive control for 180 min, at 37° C. 5% CO2/95% air in D5030 medium complemented with
5 mM D-glucose and 44 mM sodium bicarbonate (pH 7.2). […] At the end of the stimulation, medium was removed and replaced with 600 μl of 30 mM Tris HCl, and stored at −20° C.
First, the amount of proteins in each sample was quantified to assess whether harvested astrocytes from primary cell cultures yielded enough and equivalent amounts of proteins on each replicates. Proteins were quantified using the micro BCA Protein Assay kit (Thermo Scientific), according to manufacturer's instructions. Next, intracellular glycogen concentrations were quantified using a 250 μl-aliquot of the same stimulated, thawed, and sonicated cell lysate. After an incubation period of 30 min at 90° C. and 400 rpm, 28 μl of a 0.1M acetic acid/sodium acetate buffer (pH 4.6) was added to each lysate aliquots, which were then separated in two. Each split aliquots received either 5 μl of amyloglucosidase or H2O, and incubated for 120 min at 37° C. After centrifugation at 16'000G for 5 min, 20 μl of supernatant were placed in a 96-well plate, to which 150 μl of a mix containing 0.67 mM ATP, 0.67 mM NADP, 1.8% hexokinase/glucose-6-phosphate dehydrogenase in a 0.1M Tris Buffer-HCl/3.3 mM magnesium (pH 8.1) buffer was added. Fluorescence intensity (340 nm excitation/440 nm emission) was measured using a Safire 2 spectrophotometer. Glucose concentrations were assessed relative to a glucose standard curve, and glycogen concentrations were calculated by subtracting glucose values of samples that had received amyloglucosidase (i.e. that had degraded their glycogen stores) to samples that had not. Intracellular levels of glycogen, which is the main source of glucose storage in the brain, were analyzed in primary astrocytes after treatment with compounds of interest (10 μM, 3 h) (FIG. 5B), and compound GP-0157 (0.1, 1, 10 μM, 3 h) (FIG. 20).

Row | SMILES | Score_SNARF [1] | Score_LACTATE [2] | Glycogen (statistical significance of glycogen degradation) [3] | IC50 ([4]; CDC54K hits) [µM] | mobilization of intracellular glycogen [6] | further results
1 | COc1ccccc1NC(=O)Cc1nn(C)c(=O)c2ccccc12 [K851-0113] | 0.7569 | 0.9281 | ns | > 200 |  | 
2 | Fc1ccc(-c2cc3n(n2)CCCN(Cc2ccncc2)C3)cc1 [T202-1455] | 0.7839 | 0.6933 | ns | > 200 |  | 
3 | COc1cccc(CNS(=O)(=O)c2ccc3c(c2)CCCN3C(C)=O)c1 [T5967389] | 0.2789 | 0.4517 |  | > 200 |  | Score Lact. ([2]; Appendix II, CDC54K library): 0.45
4 | CC1=NN(c2ccccc2)C(=O)C1 [Ederavone, edaravone] |  |  |  |  |  | prolongation of patients' lifetime [5]: a few months only
5 | O=S(=O)(Nc1cc(F)cc(F)c1)c1ccc2ccccc2c1 [T5884038] | 0.8379 | 0.9262 |  |  | significantly enhance | 
6 | Nc1nc2ccc(OC(F)(F)F)cc2s1 [Riluzole] |  |  |  |  |  | prolongation of patients' lifetime [5]: a few months only
7 | C#C[C@]1(O)CC[C@H]2[C@@H]3[C@H](C)CC4=C(CCC(=O)C4)[C@H]3CC[C@@]21C [Tibolone] |  |  |  |  |  | Score ([1]; Prestwick library, 10 uM, 90 min, activity relative to positive control CCCP 2 uM): 0.2268; HTS Score (lactate) ([1]; Prestwick library, 10 uM, 90 min, relative to positive control CCCP 2 uM): 0.227; EC50 ([2]; Mus musculus, Astrocyte, 1.5 h, Prestwick hits, 0-100 μM, 90 min, read-out: Lactate EC50): 2.23 µM; IC50 ([4]; Prestwick hits): 60.7 µM
8 | COc1ccc(Nc2nc(N3CCOCC3)c3ccccc3n2)cc1 [T0508-5190] | 0.4029 | 0.2892 |  |  | significantly enhance | 
9 | CC(=O)c1cccc(NC(=O)C(C)Sc2ncnc3ccccc23)c1 (stereo not shown) [T0511-9200] | 0.4866 | 0.7518 | ns | > 200 |  | 
10 | COc1ccccc1[N+]1=C2CCCCCN2C(O)(c2ccc(C)cc2)C1 (stereo not shown) [K404-0834] | 1.022 | 1.613 |  |  | significantly enhance | 

Source: patent US12310967B2, “Compositions and methods of treatment for neurological disorders comprising motor neuron diseases” (Gliapharm SA, priority 2017, dated 2025)
